What all share (experiment): Cell viability assay (flow cytometry, PI)
Common to all, as to format: cell-based

One test has as its system HREC NCs. The following applies: Homo sapiens, 72 h. The protocol:
(§1) Human WI-38 fibroblasts (WI-38, Cat. No. CCL-75), human IMR-90 fibroblasts (IMR-90, Cat. No. CCL-186), human umbilical vein endothelial cells (HUVEC, Cat. No. CRL-1730), human renal epithelial cells (HREC, Cat. No. PCS-400-012) and human pre-adipocytes (Cat. No. PCS-210-010) were newly purchased from the American Type Culture Collection (ATCC, Manassas, VA, USA). WI-38 and IMR-90 cells were cultured in complete Dulbecco’s modified Eagle medium (DMEM, Cat. No. 12430054, Thermo Fisher Scientific, Waltham, MA, USA) supplemented with 10% heat-inactivated fetal bovine serum (FBS, Cat. No. S11150H, Atlanta Biologicals, Flowery Branch, GA, USA), 100 U/mL penicillin and 100 µg/mL streptomycin (Pen Strep, Cat. No. 15140122, Thermo Fisher Scientific, Waltham, MA, USA) in a humidified incubator at 37°C and 5% CO2. HUVEC were cultured in EGM-2 BulletKit (Cat. No. CC-3162, Lonza, Basel, Switzerland) containing basal medium supplemented with growth factors, cytokines and other supplements according to the manufacturer’s protocol. HREC were cultured in renal epithelial cell basal medium (Cat. No. PCS-400-030, ATCC, Manassas, VA, USA) supplemented with renal epithelial cell growth kit (Cat. No. PCS400040, ATCC, Manassas, VA, USA). Human pre-adipocytes were cultured in fibroblast basal medium (Cat. No. PCS-201-030, ATCC, Manassas, VA, USA) supplemented with fibroblast growth kit-low serum (Cat. No. PCS201041, ATCC, Manassas, VA, USA). EF24 (Cat. No. E8409) and HO-3867 (Cat. No. S7501) were purchased from Sigma-Aldrich (St. Louis, MO, USA) and Selleckchem (Houston, TX, USA), respectively. DIMC (Cat. No. 10009986) and 2-HBA (Cat. No. 11879) were both purchased from Cayman Chemical (Ann Arbor, MI, USA).
(§2) Three different methods were used for the induction of SCs, including replicative exhaustion, ionizing radiation and ectopic Ras expression as previously described. Briefly, low-passage WI-38 cells (< 25 passages), IMR-90 cells (< 25 passages), HUVEC (< 10 passages), HREC (< 10 passages) and pre-adipocytes (< 4 passages) were used as NCs or for the induction of senescence. To induce replicative senescence (Rep-SCs), WI-38 and IMR-90 fibroblasts, HUVEC, HREC and pre-adipocytes were subcultured until they stopped to divide and became permanently growth arrested senescence after 38 passages (WI-38), 38 passages (IMR-90), 22 passages (HUVEC), 30 passages (HREC) and 10 passages (pre-adipocytes), respectively. To induce SCs by ionizing radiation (IR-SCs) and ectopic expression of Ras (Ras-SCs), WI-38 NCs were treated as previously described.
(§3) Number of viable cells were quantified using flow cytometry as previously described with slight modifications. Specifically, NCs and SCs were incubated with vehicle (0.1% DMSO) or a test compound at indicated concentrations for 72 h. Following dissociation with 0.25% Trypsin-EDTA (Cat. No. 25200056, Thermo Fisher Scientific, Waltham, MA, USA) at 37°C for 5 min, the cells were harvested in 100 µl pre-cooled phosphate buffered saline (PBS, Cat. No. 20012027, Thermo Fisher Scientific, Waltham, MA, USA) containing 2% FBS and 100 ng/mL propidium iodide (PI, P4170, Sigma-Aldrich, St. Louis, MO, USA) and analyzed using flow cytometry (LSR II, BD Biosciences, San Jose, CA, USA). Percentage of viable cells were determined by counting the number of PI negative cells (viable cells) and then calculated as a ratio of control cells treated with vehicle. In addition, dose-response curves were generated for each compound, and the concentration for 50% of maximal effect (EC50 values) was calculated using GraphPad Prism 6.

The subject of the next test is IMR-90 fibroblasts NCs. The note with it: Homo sapiens, IMR-90, 72 h. The procedure:
as §1, §2, §3

Another test has as its system HUVEC NCs. The following applies: Homo sapiens, 72 h. The procedure:
as §1, §2, §3

For the next test, the system named is HREC Rep-SCs. The note with it: Homo sapiens, 72 h. The procedure:
as §1, §2, §3

The next test has as its system HUVEC Rep-SCs. The note with it: Homo sapiens, 72 h. The procedure:
as §1, §2, §3

This passage reports EC50 results from paper PMC6366974, “The curcumin analog EF24 is a novel senolytic agent” (Aging (Albany NY), 2019).

As a reminder, the EC50 is the concentration needed to bring the measured effect to its halfway point.

Regarding `O=C1/C(=C/c2ccccc2F)CNC/C1=C\c1ccccc1F` [EF24], the EC50 in the test on HREC NCs came to 3.25 µM; in the test on IMR-90 fibroblasts NCs it was 10.9 µM; with HUVEC NCs it was 1.39 µM; with HREC Rep-SCs, 0.6 µM; with HUVEC Rep-SCs, 0.77 µM.
